Data: the supplement of paper PMC10307832

Tests used:
Assay in all cases: relative viability (nuclei count vs DMSO), 5 days (fraction); higher = more cells survive
[1] = compound: C1COCCN1C2=NC(=NC3=C2OC4=C3C=CC=N4)C5=CC(=CC=C5)NC(=O)C6=CN=C(C=C6)N + CC(=O)Nc1cccc(-n2c(=O)n(C3CC3)c(=O)c3c(Nc4ccc(I)cc4F)n(C)c(=O)c(C)c32)c1 [Trametinib] (partner 0.02 µM)
Outline: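 Values are medians from duplicate plates. Each reflects relative viability, defined as the nuclei count of treated wells over that of vehicle wells. Lung cancer cell lines in 1536-well plates were pin-tool dosed one day after seeding with one drug alone or with a fixed anchor-drug dose plus five library-drug doses (not always all listed) in √10 steps, then fixed, stained and imaged at 4× after 5 days.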

[2] = compound: C1COCCN1C2=NC(=NC3=C2OC4=C3C=CC=N4)C5=CC(=CC=C5)NC(=O)C6=CN=C(C=C6)N
Outline: (§1)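 Five library-drug doses spaced by √10 were pinned onto vehicle-anchored 1536-well plates of lung cancer cell lines that had been kept overnight at 37 °C. Cells went 5 days without medium change, then were fixed, permeabilised and Hoechst-stained together, imaged at 4× and counted by MetaXpress. Viability is the ratio of treated-well to vehicle-well nuclei, taken as a median over plates. Plates required control CV below 25% and at least one doubling.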

SGI-1776 = compound: CN1CCC(CNc2ccc3ncc(-c4cccc(OC(F)(F)F)c4)n3n2)CC1 [SGI-1776]
Outline: as §1

Entinostat = compound: Nc1ccccc1NC(=O)c1ccc(CNC(=O)OCc2cccnc2)cc1 [Entinostat]
Outline: as §1

Cell Line	relative viability ([1]; first compound 0.02 µM)	relative viability ([1]; first compound 0.06325 µM)	relative viability ([1]; first compound 0.2 µM)	relative viability ([1]; first compound 0.6325 µM)	relative viability ([1]; first compound 2 µM)	relative viability ([2]; 0.02 µM)	relative viability ([2]; 0.06325 µM)	relative viability ([2]; 0.2 µM)	relative viability ([2]; 0.6325 µM)	relative viability ([2]; 2 µM)	relative viability (SGI-1776; 0.08 µM)	relative viability (SGI-1776; 0.8 µM)	relative viability (SGI-1776; 2.53 µM)	relative viability (SGI-1776; 8 µM)	relative viability (Entinostat; 0.02 µM)	relative viability (Entinostat; 0.06325 µM)	relative viability (Entinostat; 0.2 µM)	relative viability (Entinostat; 0.6325 µM)	relative viability (Entinostat; 2 µM)
NCI-H838	0.52	0.529	0.463	0.41	0.298	0.852	0.947	0.917	0.791	0.57	0.928	0.994	0.936	0.645	1.11	1.08	1.08	0.733	0.406
HARA	0.728	0.738	0.848	0.433	0.601	1.06	0.834	1.02	0.976	0.908	1.02	1.13	1	0.75	0.955	1.06	1.18	0.805	0.488
NCI-H23	0.337	0.322	0.359	0.409	0.197	0.937	0.843	0.869	0.854	0.654	0.921	1.01	1.06	0.887	1.06	1.27	1.15	0.9	0.395
LOU-NH91	0.78	0.816	0.828	0.782	0.716	0.955	1.01	0.948	0.925	0.897	1.02	1.03	0.969	0.713	1.05	1.11	1	0.897	0.739
LCLC-103H	0.66	0.693	0.693	0.62	0.479	0.913	1.06	1.07	0.978	0.815	1.02	0.998	0.964	0.924	1.03	1.06	0.942	0.721	0.454
SW 1573	0.744	0.573	0.476	0.534	0.476	0.954	1.09	1.03	0.918	0.611	1.06	0.965	0.959	0.754	0.998	1.11	1.09	1	0.874
EKVX	0.322	0.334	0.298	0.248	0.244	1.02	1.07	0.963	1.01	0.825	1.12	1.1	0.989	0.895	1.02	1.11	0.894	0.686	0.444
IA-LM						0.895	0.924	0.716	0.847	0.442	0.999	1.02	0.97	0.87	0.975	1.01	1.08	0.887	0.651
HCC-827	0.488	0.573	0.459	0.483	0.408	1.03	1.07	1.07	1.1	0.941	1.08	1.09	1.13	0.968	1.01	0.986	0.954	0.657	0.535
NCI-H661	0.607	0.631	0.534	0.599	0.436	0.989	1.04	0.978	1	0.813	1.02	1.04	1.06	0.974	1	0.999	0.911	0.809	0.664
CAL-12T	0.28	0.324	0.272	0.354	0.303	0.937	1.05	0.972	1.02	0.788	1.06	1.14	0.913	0.996	1.04	1.05	1.2	0.982	0.691
NCI-H2342	0.743	0.963	0.807	0.805	0.79	1	1.1	0.938	0.928	0.827	1.1	0.927	0.914	1.07	1.07	1.08	0.907	0.908	0.73
SW 900	0.596	0.965	0.807	0.583	0.513	0.759	1.01	0.87	0.784	0.76	0.891	1.01	0.746	0.526	0.92	0.944	0.92	0.748	0.519
LC-2-ad	0.959	0.983	0.962	0.899	0.654	0.965	1.06	0.937	0.932	0.788	0.984	1.05	1.09	0.815	1.02	0.972	0.942	0.48	0.315
EPLC-272H	0.278		0.235	0.297	0.281	0.907	0.987	0.889	0.715	0.717	1.05	1.1	1.29	0.766	0.985	0.91	0.883	0.406	0.296
A-427	0.718	0.732	0.682	0.684	0.563	0.971	0.994	0.909	0.857	0.704	1.08	1.08	0.975	0.84	1.1	1.12	0.978	0.878	0.619
NCI-H650	0.923	1.05	0.951	0.888	0.796	0.958	0.875	0.918	0.952	0.849	0.935	0.955	0.997	0.677	1.15	1.02	0.939	0.941	0.308
